The chains are these.
T1: interleukin-23 receptor (IL-23R) (human, UniProt Q5VWK5 24-629)
T1 sequence (looked up): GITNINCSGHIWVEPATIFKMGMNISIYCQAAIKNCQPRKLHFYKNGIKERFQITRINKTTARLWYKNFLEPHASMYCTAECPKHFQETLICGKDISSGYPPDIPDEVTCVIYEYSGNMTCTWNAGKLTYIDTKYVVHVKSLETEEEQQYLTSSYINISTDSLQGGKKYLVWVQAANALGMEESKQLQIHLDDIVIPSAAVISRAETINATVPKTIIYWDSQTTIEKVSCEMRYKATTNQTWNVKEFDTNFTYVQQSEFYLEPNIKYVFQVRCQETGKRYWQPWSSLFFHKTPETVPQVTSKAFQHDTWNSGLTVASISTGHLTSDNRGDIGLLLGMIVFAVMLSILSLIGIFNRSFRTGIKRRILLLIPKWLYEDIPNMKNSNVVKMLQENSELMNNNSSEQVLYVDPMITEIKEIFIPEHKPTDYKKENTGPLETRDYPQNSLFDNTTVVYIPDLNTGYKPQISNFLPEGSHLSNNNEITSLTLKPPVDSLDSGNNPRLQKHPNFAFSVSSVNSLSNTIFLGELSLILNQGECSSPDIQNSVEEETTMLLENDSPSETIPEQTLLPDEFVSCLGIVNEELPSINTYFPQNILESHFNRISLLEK

B1: SEQ ID NO 71 (peptide)
peptide: XXQTWQCXXXENN
modifications: Alexa488-[PEG4]-[(D)Arg]-cyclo[[Abu]-QTWQC]-[Phe[4-(2-aminoethoxy)]-[2-Nal]-[4-amino-4-carboxy-tetrahydropyran]-ENN-NH2
B2: SEQ ID NO 107 (peptide)
peptide: XXQTWQCXXXENN
modifications: Ac-[(D)Arg]-cyclo[[Abu]-QTWQC]-[Phe[4-(2-aminoethoxy)]-[2-Nal]-[α-MeLeu]-ENN-NH2
B3: SEQ ID NO 106 (peptide)
peptide: XQTXQCXXXENN
modifications: Ac-cyclo[[Abu]-QT-[Trp(5-F)]-QC]-[Phe[4-(2-aminoethoxy)]-[2-Nal]-[α-MeLeu]-ENN-NH2
B4: SEQ ID NO 105 (peptide)
peptide: XXQTXQCXXXENN
modifications: Ac-[(D)Arg]-cyclo[[Abu]-QT-[Trp(5-F)]-QC]-[Phe[4-(2-aminoethoxy)]-[2-Nal]-[α-MeLeu]-ENN-NH2
B5: SEQ ID NO 97 (peptide)
peptide: XXQTWXCXXXENN
modifications: Ac-[(D)Arg]-cyclo[[Abu]-QTW-[β-homoGln]-C]-[Phe[4-(2-aminoethoxy)]-[2-Nal]-[4-amino-4-carboxy-tetrahydropyran]-ENN-NH2

Positions of bridges follow the written chain, without caps; N, C: chain ends. Non-standard residues stand in square brackets, D forms with d. 2Nal = N[C@@H](Cc1ccc2ccccc2c1)C(=O)O; AEF = NCCOc1ccc(C[C@H](N)C(=O)O)cc1; αMeL = CC(C)C[C@](C)(N)C(=O)O; Pen = CC(C)(S)[C@H](N)C(=O)O Some results are limits rather than exact numbers.

For the first assay, the target named is T1, interleukin-23 receptor (IL-23R). Kind of assay: cell-based or functional assay.
Conditions: not given
Take B1: the “IC50, pStat3 HTRF (nM)” value was < 1 nM.

With B2, the “IC50, pStat3 HTRF (nM)” value was < 1 nM.

Regarding B3, the “IC50, pStat3 HTRF (nM)” value was < 1 nM.

Consider B4, for which the “IC50, pStat3 HTRF (nM)” value was < 1 nM.

In the case of B5, the “IC50, pStat3 HTRF (nM)” value is > 100 nM.

The test system of a further assay is IL-23R-expressing DB cells stimulated with IL-23 (pSTAT3 levels). Briefly: DB cells IL23R pSTAT3 cell assay (Cisbio HTRF pSTAT3). Type of assay: cell-based, human. Particulars: Table L3 (E3), additional peptide inhibitors, IL-23 0.5 nM, 30 minutes at 37° C. An excerpt:
Human ELISA indicates the IL23-IL23R competitive binding assay described below, Rat ELISA indicates the rat IL-23R competitive binding ELISA assay described below, and pStat3HTRF indicates the DB cells IL-23R pSTAT3 cell assay described below. The peptides depicted in Table E1 are cyclized via a disulfide bridge formed between two Pen residues in these peptides. The peptides depicted in Table E2 are cyclized via a thioether bond between the indicated amino acid residues. Table E2 provides an illustrative structure depicting thioether cyclization, which is indicated in the table by the term “cyclo,” with the cyclic region bracketed immediately following the term “cyclo.” For certain peptides, the residue Abu is present where indicated, whereas in other embodiments, e.g., those related to the non-cyclized form, the Abu may be referred to as a hSer(Cl) or homoSer residue.
DB Cells IL23R pSTAT3 Cell Assay
IL-23 plays a central role in supporting and maintaining Th17 differentiation in vivo. […] This cell assay examines the levels of pSTAT3 in IL-23R-expressing DB cells when stimulated with IL-23 in the presence of test compounds.
Background: TR-FRET usually uses a lanthanide donor and a delayed reading to cut background.
For orientation: IC50 means the concentration at which inhibition is half-maximal. The low end stands for greater potency, the high end for weaker potency. “162 (XNTWQXXXXKNNL; MOD_RES (1)..(1) L-Penicillamine; MOD_RES (6)..(6) L-Penicillamine; MOD_RES (7)..(7) 4-(2-aminoethoxy)-L-phenylalanine; MOD_RES (8)..(8) L-2-Napthylalanine; MOD_RES (9)..(9) alpha-methyl-L-Leucine; MOD_RES (10)..(10) …ON) [compound 162]” displayed an IC50 of 1 to 10 nM.

Take “163 (XNTWQXXXXKNNG; MOD_RES (1)..(1) L-Penicillamine; MOD_RES (6)..(6) L-Penicillamine; MOD_RES (7)..(7) 4-(2-aminoethoxy)-L-phenylalanine; MOD_RES (8)..(8) L-2-Napthylalanine; MOD_RES (9)..(9) alpha-methyl-L-Leucine; MOD_RES (10)..(10) …ON) [compound 163]”: the IC50 lay in the range of 1 to 10 nM.

Turning to “179 (Ac-K(Ac)[Pen]NTWQ[Pen][AEF][2Nal][αMeL]K(Ac)NN-NH2; disulfide 2-7 (inferred)) [compound 179]”, the IC50 is 1 to 10 nM.

In turn, “180 (Ac-K(Ac)[Pen]NTWQ[Pen][4‑Carbamoyl‑L‑phenylalanine][2Nal][αMeL]K(Ac)NN-NH2; disulfide 2-7 (inferred)) [compound 180]” showed an IC50 of 1 to 10 nM.

As for “181 (XNTWQXXXXKNNK; MOD_RES (1)..(1) L-Penicillamine; MOD_RES (6)..(6) L-Penicillamine; MOD_RES (7)..(7) 4-(2-aminoethoxy)-L-phenylalanine; MOD_RES (8)..(8) L-2-Napthylalanine; MOD_RES (9)..(9) alpha-methyl-L-Leucine; MOD_RES (10)..(10) …ON; MOD_RES (13)..(13) …ON) [compound 181]”, the IC50 lay within 1 to 10 nM.

For “182 (Ac-[Pen]NTWQ[Pen][4‑Carbamoyl‑L‑phenylalanine][2Nal][αMeL]K(Ac)NNK(Ac)-NH2; disulfide 1-6 (inferred)) [compound 182]”, the IC50 fell in the range of 1 to 10 nM.
